Measurements: patent US20120122870A1, “Treatment Of Ischemia-Reperfusion Injury” (MUSC FOUNDATION FOR RESEARCH DEVELOPMENT, priority 2009, published 2012)

Tests used:
[1] = tested on: mitochondrial depolarization in hepatocytes; test: Intravital multiphoton microscopy of mitochondrial depolarization (Rh123/PI) after hepatic IR; format: in vivo, mice; details: 1 h of ischemia and 2 h of reperfusion
From the text: MPT onset is an important mechanism leading to cell death due to mitochondrial depolarization. […] There are two main advantages of multiphoton microscopy: 1) Red/infrared light penetrates deeper than visible light into solid tissues allowing visualization of tissue planes as deep as 1 mm into thick specimens. […] Therefore, the viability of thick living specimens is maintained much longer with multiphoton microscopy (Lemasters 2000). These advantages make multiphoton microscopy a powerful tool for studying mitochondrial function in live animals.
Following 1 h-ischemia and […], rhodamine-123 (Rh123), a cationic fluorophore that is taken up by polarized mitochondria, and propidium iodine (PI) that labels the nuclei of non-viable cells were infused and intravital multiphoton imaging of livers was performed. […]
Imaging of fluorescent probes Rh123, PI and calcein in vivo was achieved using a Zeiss LSM 510 laser scanning multiphoton microscope system using IR excitation of 800-900 nm from a Coherent Chameleon tunable Ti-Sapphire femtosecond pulsed laser, which excites both red- and green-fluorescing (rhodamine- and fluorescein-like) fluorophores. For calcein fluorescence, excitation of 720-nm was used.

[2] = tested on: phosphorylated p65 subunit of NF-κB; test: Phosphorylated p65 NF-κB immunoblot after hepatic warm IR; format: in vivo, mice; details: livers harvested 2 h after IR
Experimental: ABC294640 prevents hepatic warm IR-induced tumor necrosis factor-α (TNFα) formation and NF-κB activation. Toxic cytokine formation and inflammatory processes play important roles in IR injury, and S1P is well known to promote inflammation. Accordingly, we investigated whether ABC294640 affects the expression of the pro-inflammatory cytokine TNFα after IR. Livers were harvested at 2 h after reperfusion and TNFα mRNA was detected by quantitative real time PCR. TNFα mRNA increased ˜10-fold after IR (FIG. 15, upper). ABC294640 blunted this increase in TNFα mRNA by ˜50%. NF-κB activation is involved in inflammatory cytokine formation and upregulation of adhesion molecules. After IR, phosphorylation of p65 subunit of NF-κB increased markedly, indicating NF-κB activation. This effect was also blunted by ABC294640 (FIG. 15 lower) which is consistent with our previous studies of NF-κB activation. Western blotting: Briefly, liver tissue was homogenized in a 0.1% Triton-X100 buffer containing a protease inhibitor cocktail, and the extract was centrifuged at 12,000×g for 10 min at 4° C. […] Expression of the protein of interest was quantified by the density of Western blot images by densitometry and standardized by house keeping gene actin.

SMILES: O=C(NCc1ccncc1)C12CC3CC(C1)CC(c1ccc(Cl)cc1)(C3)C2 [ABC294640, 3-(4-chlorophenyl)-N-(pyridin-4-ylmethyl)adamantane-1-carboxamide]
- mitochondrial depolarization after hepatic IR (in words) [1]: rare and largely prevented and prevents mitochondrial depolarization
- hepatocytes with mitochondrial depolarization ([1]; Rh123): 17%
- phosphorylation of p65 subunit of NF-κB (NF-κB activation) [2]: blunts
